The text below walks through data of patent US20220105189A1, “POLYETHYLENE GLYCOL CONJUGATED DRUG AND ITS PREPARATION METHOD AND USE” (CHONGQING UPGRA BIOTECHNOLOGY CO., LTD., priority 2019, published 2022).

The experiment concerns human colon cancer cell colo205. In words: Anti-tumor efficacy on subcutaneously transplanted tumor of colo205 (Experimental Example 2). The experiment is classed as in vivo, Balb/c nude mice. The note with it: colo205, Day 19; 23-161 16.06 mg/kg tail vein; PCB 1.73 mg/kg oral. As for the experimental part: 1. Tumor strain and transplantation method of solid tumor: Human colon cancer cell colo205 was routinely preserved in the cell room of the State Key Laboratory of Molecular Oncology, Institute of Cancer Research, Chinese Academy of Medical Sciences. The tumor cells were taken out of liquid nitrogen, quickly thawed at 37° C., resuscitated and expanded, and then inoculated subcutaneously in the right axillary of healthy Balb/c mice. When the transplanted tumor grew to about 1.0 cm in diameter, the mice were sacrificed. Under aseptic conditions, the tumors were peeled off for passage by conventional methods.
2. Tumor inoculation and grouping: the tumor-bearing mice were sacrificed, the tumors were peeled off under aseptic condition and washed with normal saline several times, the necrotic tissues were removed, the well-growing tumor tissues were selected and divided into 2×2 mm tissue blocks, and the tumor tissue blocks were inoculated subcutaneously in the right axillary with a special metal trocar. After the transplantation of the tumor tissue blocks, administration in groups was carried out on the day of the transplantation.
3. […]
4. Data collection: the mice were weighed, the volume of tumors was measured, the mice were scarified on Day 19, the tumors were weighed, and the tumor inhibition rate (%) was calculated. […]

As for `CC(=O)c1c(C)c2cnc(Nc3ccc(N4CCNCC4)cn3)nc2n(C2CCCC2)c1=O` [PCB, Palbociclib], the Tumor inhibition rate is −5.8% and the “Tumor weight (g) Average” value turned out to be 0.39 g.
